Experimental data from US12171743B2, “Forms of aticaprant” (Janssen Pharmaceuticals, Inc., priority 2022, dated 2024).

Assays:
subjects with MDD [1] = assay: ASEX sexual functioning score; assay type: in vivo, human
Text: As used herein, the term “decrease in sexual functioning” refers to reducing or lessening of one or more components of the human sex drive, i.e., sexual functioning. In some embodiments, the sexual functioning comprises one or more of sexual drive, sexual arousal, vaginal lubrication, erection, orgasm achievement, or orgasm satisfaction. In other embodiments, the sexual functioning comprises sexual drive. In further embodiments, the sexual functioning comprises vaginal lubrication satisfaction. In further embodiments, the sexual functioning comprises orgasm achievement. In yet other embodiments, the sexual functioning comprises orgasm satisfaction. Desirably, the patient's sexual functioning is assessed at the time of initial administration of the crystalline Form I of aticaprant, crystalline Form II of aticaprant, crystalline Form III of aticaprant, or amorphous aticaprant. Thus, the patient's sexual functioning while taking crystalline Form I of aticaprant, crystalline Form II of aticaprant, crystalline Form III of aticaprant, or amorphous aticaprant can be compared to the patient's sexual functioning before administration of crystalline Form I of aticaprant, crystalline Form II of aticaprant, crystalline Form III of aticaprant, or amorphous aticaprant. Sexual functioning may be assessed by using standard scales and techniques such as the Arizona Sexual Experience Scale (ASEX). The ASEX is used to investigate whether crystalline Form I of aticaprant, crystalline Form II of aticaprant, crystalline Form III of aticaprant, or amorphous aticaprant has a further positive or negative effect on sexual function. The ASEX is 5 item rating scale administered to patients that quantifies sexual drive, sexual arousal, vaginal lubrication or penile erection, ability to reach orgasm and satisfaction. Scores range from 5 to 30, and two different versions of the scale are available (males and females).
Patients had their sexual functioning measured using a standard, well accepted rating scale: ASEX. See, Table 68.

subjects with MDD [2] = assay: MADRS total score, adjunctive aticaprant vs placebo in MDD (Example 8); conditions: for MADRS Total Score: Mean Change from Baseline (SD): aticaprant 10 mg adjunctive to SSRI/SNRI; for MADRS: LSMeans difference estimate, supplementary MMRM analysis (COVID-19 impact): data collected prior to 15 Mar. 2020
subjects with MDD [3] = assay: HAM-A6 total score (anxiety), same study; assay type: in vivo, human; conditions: Treatment Week 6
Text: The secondary objectives are: • i. […] To investigate the effect of aticaprant versus placebo on depression related anhedonia as assessed by the SHAPS. • iv. To investigate the effect of aticaprant on symptoms of depression using the Clinical Global Impression-Severity (CGI-S), the patient reported Symptoms of Major Depressive Disorder Scale (SMDDS) and the self-assessment of treatment experience (SATE). • V. To investigate the effect of aticaprant on symptoms of anxiety using the HAM-A and on core symptoms of anxiety using the HAM-A6 subscale. • vi. To assess the plasma PK of aticaprant in subjects with MDD and explore its relationship with efficacy and safety parameters.
• (i) Depression: Montgomery-Åsberg Depression Rating Scale (MADRS), Clinical Global Impression-Severity (CGI-S), Symptoms of Major Depressive Disorder Scale (SMDDS), and Self-assessment of treatment experience (SATE) • (ii) Anhedonia: Snaith-Hamilton Pleasure Scale (SHAPS) • (iii) Anxiety: Structured Interview Guide for the Hamilton Anxiety scale (SIGH-A) and HAM-A6 • (iv) Effects on Cognition: The Cognitive and Physical Functioning Questionnaire (CPFQ) • (v) Safety assessments

subjects with MDD [4] = assay: Treatment-emergent adverse events, full safety analysis set; assay type: in vivo, human
[5] = Body weight by treatment group; assay type: in vivo, human
Text: Treatment with crystalline Form I of aticaprant, crystalline Form II of aticaprant, crystalline Form III of aticaprant, or amorphous aticaprant as described herein has several advantages over the treatments in the art. […] As used herein, the term “weight gain” refers to an increase in the weight of patient, relative to the weight of the patient before taking crystalline Form I of aticaprant, crystalline Form II of aticaprant, crystalline Form III of aticaprant, or amorphous aticaprant or the weight of the patient that is assessed at the time of the initial administration of the crystalline Form I of aticaprant, crystalline Form II of aticaprant, crystalline Form III of aticaprant, or amorphous aticaprant. In certain embodiments, the patient may actually see a decrease in overall weight, relative to the weight of the patient before taking crystalline Form I of aticaprant, crystalline Form II of aticaprant, crystalline Form III of aticaprant, or amorphous aticaprant.
At the lead-in baseline timepoint, the mean weight for subjects in the placebo group was 76.17 kg compared to 78.66 in the aticaprant group. After 6 weeks in the double-blind treatment phase, the mean weight in the placebo group was 75.75 kg compared to 78.57 kg in the aticaprant group. […] This is unexpected because other adjunctive treatments for MDD result in a mean weight increase. See, Thase M, et al. J Clin Psych. 2015: 76 (9), 1224-1231; Thase, J Clin Psych. 2015, 76 (9): 1232-1240; El Khalili, Int J Neuropsychopharmacol. 2010, 13, 917-932; Marcus, J. Clin. Psychopharmacol. […] Nashville, Tenn, ACNP, 2008; Earley, American College of Neuropsychopharmacology, 2007, Annual Meeting Abstracts (Boca Raton, Fla, Dec. 9-13, 2007). Nashville, TN, ACNP, 2007). See, Table 65.

[6] = eITT Analysis Set, High anhedonia (SHAPS Total Score at Treatment Baseline >=38), Treatment Week 6
[7] = fITT Analysis Set, High anhedonia (SHAPS Total Score at Treatment Baseline >=38), Treatment Week 6
[8] = Treatment Period, Full Safety Analysis Set, aticaprant 10 mg (N = 85)

Question: What does the source list for Cc1cc(C)cc(C2CCCN2Cc2ccc(Oc3ccc(C(N)=O)cc3F)cc2)c1 (stereo not shown) [aticaprant, 3-fluoro-4-4-2-(3,5-dimethylphenyl) pyrrolidin-1-yl-methylphenoxybenzamide]?
Answer: sexual functioning (in words) (subjects with MDD [1]; ASEX): notable improvements; ASEX score (subjects with MDD [1]; Baseline, n = 85): 21.26; ASEX total score: mean change from treatment baseline (SD) (subjects with MDD [1]; to week 6, lower score indicates improvement): −1.5 (4.02) points; MADRS Total Score Effect size (subjects with MDD [2]; [6]): −0.38; MADRS Total Score Mean Change to Placebo (SD pooled) (subjects with MDD [2]; [6]): −3.4 (8.98); MADRS Total Score Effect size (subjects with MDD [2]; eITT Analysis Set, Low anhedonia (SHAPS Total Score at Treatment Baseline >=20 and <38), Treatment Week 6): −0.11; MADRS Total Score: Mean Change from Baseline (SD) (subjects with MDD [2]; eITT, Treatment Week 1): −3.3; MADRS Total Score: Mean Change from Baseline (SD) (subjects with MDD [2]; eITT, Treatment Week 3): −5.7; MADRS Total Score: Mean Change to Placebo (SD pooled) (subjects with MDD [2]; eITT, Treatment Week 4): −0.9 (7.00); MADRS Total Score: Mean Change from Baseline (SD) (subjects with MDD [2]; eITT, Treatment Week 4): −7.3; MADRS Total Score: Mean Change from Baseline (SD) (subjects with MDD [2]; eITT, Treatment Week 5): −8.4; MADRS Total Score: Mean Change from Baseline (SD) (subjects with MDD [2]; eITT, Treatment Week 6): −10.2 (8.44); MADRS: LSMeans difference estimate, supplementary MMRM analysis (COVID-19 impact) (subjects with MDD [2]; eITT): −3.0; MADRS Total Score Effect size (subjects with MDD [2]; [7]): −0.51; MADRS Total Score Mean Change to Placebo (SD pooled) (subjects with MDD [2]; [7]): −4.6 (9.03); MADRS Total Score Effect size (subjects with MDD [2]; fITT Analysis Set, Low anhedonia (SHAPS Total Score at Treatment Baseline >=20 and <38), Treatment Week 6): −0.29; MADRS Total Score Change from Baseline LSMean Difference (SE) Treatment-Placebo (subjects with MDD [2]; fITT Analysis Set, Treatment Week 1, MMRM): −1.6 (1.03); MADRS Total Score Change from Baseline LSMean Difference (SE) Treatment-Placebo (subjects with MDD [2]; fITT Analysis Set, Treatment Week 3, MMRM): −1.9 (1.04); MADRS Total Score Change from Baseline LSMean Difference (SE) Treatment-Placebo (subjects with MDD [2]; fITT Analysis Set, Treatment Week 4, MMRM): −2.5 (1.04); MADRS Total Score Change from Baseline LSMean Difference (SE) Treatment-Placebo (subjects with MDD [2]; fITT Analysis Set, Treatment Week 5, MMRM): −2.4 (1.05); MADRS Total Score Change from Baseline LSMean Difference (SE) Treatment-Placebo (subjects with MDD [2]; fITT Analysis Set, Treatment Week 6, MMRM): −3.1 (1.05); MADRS Total Score: Mean Change to Placebo (SD pooled) (subjects with MDD [2]; fITT, Treatment Week 4): −2.3 (7.02); MADRS total score: mean change from treatment baseline (SD) (subjects with MDD [2]; fITT, Treatment Week 6): −9.7 (8.02); MADRS Total Score: Least Squares Mean Difference aticaprant vs placebo (subjects with MDD [2]; fITT, Treatment Week 6, MMRM): −3.1; MADRS: LSMeans difference estimate, supplementary MMRM analysis (COVID-19 impact) (subjects with MDD [2]; fITT): −3.4; HAM-A6 score, aticaprant treated patients vs. placebo (in words) (subjects with MDD [3]): greater improvement; Change from Treatment Baseline in HAM-A6 Total Score: Arithmetic Mean (SD) (subjects with MDD [3]; aticaprant 10 mg, 59 subjects analyzed): −2.73 ± 2.651 scores on a scale; Subjects with 1 or more serious TEAE (subjects with MDD [4]; [8]): 0 n; Subjects with TEAE leading to death (subjects with MDD [4]; [8]): 0 n; TEAE of Special Interest: Abdominal Pain Upper (subjects with MDD [4]; [8]): 0 n; patients who experienced acute cholecystitis (subjects with MDD [4]; treatment period): 0 patients; subjects who experienced TEAEs of special interest (subjects with MDD [4]; treatment period, 13/85): 15.3%; subjects who discontinued due to treatment-emergent adverse events (subjects with MDD [4]; treatment period, due to diarrhea, nausea, vomiting and headache): 1 subject; subjects with TEAE diarrhea (subjects with MDD [4]; treatment period, full safety analysis set, 7/85): 8.2%; subjects with TEAE headache (subjects with MDD [4]; treatment period, full safety analysis set, 10/85): 11.8%; subjects who experienced at least one TEAE (subjects with MDD [4]; treatment period, full safety analysis set, 40/85): 47.1%; Mean weight, mean (SE) ([5]; Lead-in Baseline, n = 85): 78.66 (1.65) kg; Mean weight, mean (SE) ([5]; Screening, n = 85): 78.42 (1.65) kg; Mean weight, mean (SE) ([5]; Withdrawal Baseline (after 6 weeks double-blind treatment), n = 85): 78.57 (1.71) kg; Mean weight Relative % Change ([5]; Withdrawal vs Lead-in, n = 85): −0.11%; mean weight ([5]; after 6 weeks in the double-blind treatment phase, lead-in baseline 78.66): 78.57 kg; weight over the 6-week double blind treatment period (in words) ([5]; in vivo): remained relatively stable; Mean weight Absolute Change (Withdrawal-Lead-in) ([5]; n = 85): -0.09 kg
